We go through 3 molecules from PMC5686171 (Scientific Reports, 2017).

Structures are written as SMILES. Like-named read-outs stand apart in the source and are kept apart here.

One test has as its target T1, β2Y62Lγ2 (Rattus norvegicus, UniProt P18508+P63138, Y86L).
T1 construct: expressed in transfected cells; host or cells: Xenopus laevis oocytes (cRNA injection, β2:γ2 1:3)
Nature of the test: Two-electrode voltage clamp, mutant β2Y62Lγ2 in Xenopus oocytes. In kind it is cell-based. To be noted: for DZ potentiation: 1 µM diazepam. As to the method: (§1) The point mutations β2Y62Lγ2, β2T202Aγ2, β2T202Sγ2, β2Y205Sγ2, β2Y205Qγ2, β2γ2F77Y, β2γ2S217A, β2γ2Y220S and β2γ2Y220Q were prepared using the QuickChange^TM mutagenesis kit (Stratagene, Agilent Technologies, Basel, Switzerland).
(§2) Animal experiments were carried out in strict accordance to the Swiss ethical guidelines, and have been approved by the local committee of the Canton Bern Kantonstierarzt, Kantonaler Veterinärdienst Bern (BE85/15). Surgery of Xenopus laevis to obtain the oocytes was done under anesthesia, and all efforts were made to diminish animal suffering. Oocytes were prepared, injected and defolliculated as described previously[41],[42]. Polyadenylated cRNA coding for the subunits of GABAA receptors were prepared in vitro with the mMESSAGE mMACHINE kit (Ambion, Austin, TX, USA). Oocytes were injected with 50 nl of solution containing cRNA coding for wild type or mutants β2 (1 fMol) or γ2 (3 fMol) subunits and then incubated in modified Barth’s solution (10 mM HEPES, pH 7.5, 88 mM NaCl, 1 mM KCl, 2.4 mM NaHCO3, 0.82 mM MgSO4, 0.34 mM Ca(NO3)2, 0.41 mM CaCl2, 100 units/ml penicillin, 100 µg/ml streptomycin) at 18 °C for 5–7 days before measurements.
(§3) Electrophysiological experiments were performed using an Oocyte Clamp OC-725 (Warner Instrument Corp., Hamden, USA) two-electrode voltage clamp amplifier. Currents were digitized at 5 kHz with MacLab/200 (AD Instruments, Spechbach, Germany).
(§4) The holding potential was −80 mV. The perfusion medium contained 90 mM NaCl, 1 mM KCl, 1 mM MgCl2, 1 mM CaCl2 and 5 mM Na-HEPES (pH 7.4). The perfusion solution (6 ml/min) was applied through a glass capillary with an inner diameter of 1.35 mm, the mouth of which was placed about 0.5 mm from the surface of the oocyte. […] Maximal current amplitudes (Imax) were obtained from the fits of the concentration-response curves. The individual curves were fitted and standardized to Imax and subsequently averaged. […] The duration of washout periods was 4 min in between agonist or agonist/drug applications to prevent receptor desensitization. […]
On the technique in general: Two-electrode voltage clamp holds a large cell at a set potential and records current.

For the next test, the target named is T2, γ2Y220Qβ2 (Rattus norvegicus, UniProt P18508+P63138, Y258Q).
T2 construct: expressed in transfected cells; host or cells: Xenopus laevis oocytes (cRNA injection, β2:γ2 1:3)
T2 sequence (P63138 25-474 limits assumed): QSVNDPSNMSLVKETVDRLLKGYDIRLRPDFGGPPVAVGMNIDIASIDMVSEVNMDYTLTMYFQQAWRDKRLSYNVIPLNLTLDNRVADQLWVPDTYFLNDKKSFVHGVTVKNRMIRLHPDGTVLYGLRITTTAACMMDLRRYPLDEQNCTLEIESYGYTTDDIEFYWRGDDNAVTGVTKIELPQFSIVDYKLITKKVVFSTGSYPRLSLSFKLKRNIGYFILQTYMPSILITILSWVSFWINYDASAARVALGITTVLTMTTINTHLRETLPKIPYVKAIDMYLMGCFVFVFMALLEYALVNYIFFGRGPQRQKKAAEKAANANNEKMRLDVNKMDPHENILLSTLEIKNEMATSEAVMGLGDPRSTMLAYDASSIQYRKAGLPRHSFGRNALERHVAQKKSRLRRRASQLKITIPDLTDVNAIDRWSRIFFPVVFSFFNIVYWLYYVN
T2 sequence (P18508 39-466 Y258Q): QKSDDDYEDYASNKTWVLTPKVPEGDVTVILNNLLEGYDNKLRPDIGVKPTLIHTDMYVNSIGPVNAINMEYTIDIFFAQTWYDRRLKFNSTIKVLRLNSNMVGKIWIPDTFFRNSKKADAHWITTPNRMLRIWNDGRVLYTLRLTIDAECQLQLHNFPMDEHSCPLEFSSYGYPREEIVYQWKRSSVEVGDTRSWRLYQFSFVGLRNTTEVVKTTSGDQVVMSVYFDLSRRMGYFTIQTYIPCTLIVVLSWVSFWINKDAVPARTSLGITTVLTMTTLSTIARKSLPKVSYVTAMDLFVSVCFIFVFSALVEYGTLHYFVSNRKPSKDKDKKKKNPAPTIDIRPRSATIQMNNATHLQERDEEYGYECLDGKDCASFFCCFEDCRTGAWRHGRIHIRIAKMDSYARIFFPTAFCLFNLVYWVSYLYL
Nature of the test: Two-electrode voltage clamp, mutant γ2Y220Qβ2 in Xenopus oocytes. To be noted: for DZ potentiation: 1 µM diazepam. Type of test: cell-based. As to the method: as §1, §2, §3, §4

In a further test the target is T3, γ2S217Aβ2 (Rattus norvegicus, UniProt P18508+P63138, S255A).
T3 construct: expressed in transfected cells; host or cells: Xenopus laevis oocytes (cRNA injection, β2:γ2 1:3)
T3 sequence (P63138 25-474 limits assumed): as the sequence (P63138 25-474 limits assumed) above
T3 sequence (P18508 39-466 S255A): as the sequence (P18508 39-466 Y258Q) above, with S217A, Q220Y counted along it
Nature of the test: Two-electrode voltage clamp, mutant γ2S217Aβ2 in Xenopus oocytes. In kind it is cell-based. The following applies: for DZ potentiation: 1 µM diazepam. As to the method: as §1, §2, §3, §4

Another test addresses T4, β2γ2 GABAA receptors (Rattus norvegicus, UniProt P18508+P63138).
T4 construct: expressed in transfected cells; host or cells: Xenopus laevis oocytes (cRNA injection, β2:γ2 1:3)
Nature of the test: Two-electrode voltage clamp, wild type β2γ2 receptors expressed in Xenopus oocytes. The following applies: for GABA current amplitude: 10 mM GABA; for DZ potentiation: 1 µM diazepam, GABA eliciting 1–5% of maximal current. Type of test: cell-based. As to the method: as §2, §3, §4

A further test has as its target T5, γ2 (Rattus norvegicus, UniProt P18508).
T5 construct: expressed in transfected cells; host or cells: Xenopus laevis oocytes (cRNA injection)
Nature of the test: Two-electrode voltage clamp, γ2 subunit expressed alone in Xenopus oocytes. In kind it is cell-based. As to the method: as §2, §3
(§5) The holding potential was −80 mV. The perfusion medium contained 90 mM NaCl, 1 mM KCl, 1 mM MgCl2, 1 mM CaCl2 and 5 mM Na-HEPES (pH 7.4). […]

The target of the next test is T6, γ2F77Yβ2 (Rattus norvegicus, UniProt P18508+P63138, F115Y).
T6 construct: expressed in transfected cells; host or cells: Xenopus laevis oocytes (cRNA injection, β2:γ2 1:3)
T6 sequence (P63138 25-474 limits assumed): as the sequence (P63138 25-474 limits assumed) above
T6 sequence (P18508 39-466 F115Y): as the sequence (P18508 39-466 Y258Q) above, with F77Y, Q220Y counted along it
Nature of the test: Two-electrode voltage clamp, mutant γ2F77Yβ2 in Xenopus oocytes. To be noted: for DZ potentiation: 1 µM diazepam. In kind it is cell-based. As to the method:
as §1, §2, §3, §4

The next test has as its target T7, β2 (Rattus norvegicus, UniProt P63138).
T7 construct: expressed in transfected cells; host or cells: Xenopus laevis oocytes (cRNA injection)
Nature of the test: Two-electrode voltage clamp, β2 subunit expressed alone in Xenopus oocytes. Type of test: cell-based. As to the method: as §2, §3, §5

The target in the next test is T8, β2T202Sγ2 (Rattus norvegicus, UniProt P18508+P63138, T226S).
T8 construct: expressed in transfected cells; host or cells: Xenopus laevis oocytes (cRNA injection, β2:γ2 1:3)
T8 sequence (P63138 25-474 T226S limits assumed): as the sequence (P63138 25-474 limits assumed) above, with T202S counted along it
T8 sequence (P18508 39-466): as the sequence (P18508 39-466 Y258Q) above, with Q220Y counted along it
Kind of test: Two-electrode voltage clamp, mutant β2T202Sγ2 in Xenopus oocytes. In kind it is cell-based. To be noted: for DZ potentiation: 1 µM diazepam. As to the method: as §1, §2, §3, §4

A further test concerns α1T206A in α1β2γ2. To be noted: ref [26]; cited from earlier work.
The test system of test [1] is mice carrying a point mutation in all those four alpha subunits. On the set-up: method as in Ralvenius et al.[40]. The following applies: point-mutated mice, 10 mg/kg diazepam, ref Ralvenius et al.[40], cited from earlier work.
For a further test, the system named is α1β2γ2. The following applies: read-out: EC50 of diazepam; cited from earlier work.
The test system of the next test is γ2F77Y in α1β2γ2. The following applies: ref [29], cited from earlier work.
For the next test, the system named is α1T206V in α1β2γ2. To be noted: ref [28]; cited from earlier work.
A further test concerns α1T206C in α1β2γ2. The following applies: ref [12],[27]; cited from earlier work.
A further test deals with T9, β2T202Aγ2 (Rattus norvegicus, UniProt P18508+P63138, T226A).
T9 construct: expressed in transfected cells; host or cells: Xenopus laevis oocytes (cRNA injection, β2:γ2 1:3)
T9 sequence (P63138 25-474 T226A): as the sequence (P63138 25-474 limits assumed) above, with T202A counted along it
T9 sequence (P18508 39-466): as the sequence (P18508 39-466 Y258Q) above, with Q220Y counted along it
Kind of test: Two-electrode voltage clamp, mutant β2T202Aγ2 in Xenopus oocytes. Type of test: cell-based. To be noted: 50 µM etomidate. As to the method:
as §1, §2
(§6) Electrophysiological experiments were performed using an Oocyte Clamp OC-725 (Warner Instrument Corp., Hamden, USA) two-electrode voltage clamp amplifier. […]

A further test concerns α1β2Y62Lγ2 receptors. Nature of the test: Effect of mutation β2Y62L in α1β2γ2 receptors. In kind it is cell-based. To be noted: 50 µM etomidate vs GABA.
Another test deals with T10, γ2Y220Sβ2 (Rattus norvegicus, UniProt P18508+P63138, Y258S).
T10 construct: expressed in transfected cells; host or cells: Xenopus laevis oocytes (cRNA injection, β2:γ2 1:3)
T10 sequence (P63138 25-474 limits assumed): as the sequence (P63138 25-474 limits assumed) above
T10 sequence (P18508 39-466 Y258S): as the sequence (P18508 39-466 Y258Q) above, with Q220S counted along it
Kind of test: Two-electrode voltage clamp, mutant γ2Y220Sβ2 in Xenopus oocytes. To be noted: 50 µM etomidate. Type of test: cell-based. As to the method: as §1, §2, §6

Another test has as its target T11, β2Y205Sγ2 (Rattus norvegicus, UniProt P18508+P63138, Y229S).
T11 construct: expressed in transfected cells; host or cells: Xenopus laevis oocytes (cRNA injection, β2:γ2 1:3)
Kind of test: Two-electrode voltage clamp, mutant β2Y205Sγ2 in Xenopus oocytes. The following applies: 50 µM etomidate. Type of test: cell-based. As to the method:
as §1, §2, §6

Another test concerns the target T12, β2Y205Qγ2 (Rattus norvegicus, UniProt P18508+P63138, Y229Q).
T12 construct: expressed in transfected cells; host or cells: Xenopus laevis oocytes (cRNA injection, β2:γ2 1:3)
Nature of the test: Two-electrode voltage clamp, mutant β2Y205Qγ2 in Xenopus oocytes. To be noted: 50 µM etomidate. Type of test: cell-based. As to the method:
as §1, §2, §6

T1 sequence (P63138 25-474 Y86L limits assumed): as the sequence (P63138 25-474 limits assumed) above, with Y62L counted along it
T1 sequence (P18508 39-466): as the sequence (P18508 39-466 Y258Q) above, with Q220Y counted along it
T4 sequence (P63138 25-474 limits assumed): as the sequence (P63138 25-474 limits assumed) above
T4 sequence (P18508 39-466): as the sequence (P18508 39-466 Y258Q) above, with Q220Y counted along it
T5 sequence (P18508 39-466): as the sequence (P18508 39-466 Y258Q) above, with Q220Y counted along it
T7 sequence (P63138 25-474 limits assumed): as the sequence (P63138 25-474 limits assumed) above
T11 sequence (P63138 25-474 Y229S): as the sequence (P63138 25-474 limits assumed) above, with Y205S counted along it
T11 sequence (P18508 39-466): as the sequence (P18508 39-466 Y258Q) above, with Q220Y counted along it
T12 sequence (P63138 25-474 Y229Q): as the sequence (P63138 25-474 limits assumed) above, with Y205Q counted along it
T12 sequence (P18508 39-466): as the sequence (P18508 39-466 Y258Q) above, with Q220Y counted along it

For `NCCCC(=O)O` [GABA, γ-Aminobutyric acid], the “Hill coefficient of GABA” value at β2Y62Lγ2 (β2Y62Lγ2) was found to be 1.0 ± 0.1; on γ2Y220Qβ2 (β2γ2Y220Q), 0.7 ± 0.1; at γ2S217Aβ2 (β2γ2S217A), 0.8 ± 0.1; at β2γ2 GABAA receptors (β2γ2), 1.0 ± 0.1; on γ2F77Yβ2 it was 0.9 ± 0.1; at β2T202Sγ2 (β2T202Sγ2) it was 0.8 ± 0.1. Further, the GABA current amplitude at β2Y62Lγ2 (β2Y62Lγ2, 10 mM GABA) is 53 ± 8 (17) nA; on γ2Y220Qβ2 (γ2Y220Qβ2, 10 mM GABA) it was 127 ± 40 (6) nA; at γ2S217Aβ2 (γ2S217Aβ2, 10 mM GABA), 100 ± 25 (13) nA; on β2γ2 GABAA receptors (β2γ2, cRNA ratio 1:3, −80 mV), 131 ± 19 (13) nA; at β2γ2 GABAA receptors (β2γ2 from 1:1 and 2:1 cRNA ratios) it was “less than 100 nA”; on γ2 (10 mM GABA), −4 ± 1 (5) nA. The GABA current amplitude at γ2F77Yβ2 (10 mM GABA) is 148 ± 23 (11) nA; at β2 (10 mM GABA) it was −4 ± 1 (4) nA; at β2T202Sγ2 (β2T202Sγ2, 10 mM GABA), 203 ± 18 (5) nA. For the same molecule, on β2Y62Lγ2 (β2Y62Lγ2 vs wild-type β2γ2), the “Decrease in the sensitivity for GABA” value was found to be 3 fold. In addition, the “Smaller GABA current amplitude compared to wild-type” value on β2Y62Lγ2 (β2Y62Lγ2 vs wild-type β2γ2) is listed as 2 fold. The “Decrease in sensitivity to GABA” value at γ2Y220Qβ2 (β2γ2Y220Q vs wild-type β2γ2) came out at 5 fold; on γ2S217Aβ2 (β2γ2S217A vs wild-type β2γ2) it was 2 fold. In addition, on β2T202Sγ2 (β2T202Sγ2 vs wild-type β2γ2), the “Decrease in GABA sensitivity” value came out at 42 fold.

As for `CN1C(=O)CN=C(c2ccccc2)c2cc(Cl)ccc21` [diazepam], the “Decrease in DZ affinity” value in the test with α1T206A in α1β2γ2 was “(3-fold decrease in DZ affinity)”; with γ2F77Y in α1β2γ2 (listed as DZ), 230-fold decrease in DZ affinity; with γ2F77Y in α1β2γ2, “abolishes the binding site”; in the test on α1T206V in α1β2γ2, “(7-fold decrease in DZ affinity)”. In addition, the DZ potentiation entry at β2Y62Lγ2 (β2Y62Lγ2) is reported as “not significantly affected”; at β2Y62Lγ2 (β2Y62Lγ2, listed as DZ), 121 ± 12 (5) %; at γ2Y220Qβ2 (γ2Y220Qβ2) it was “not significantly affected”; at γ2Y220Qβ2 (γ2Y220Qβ2, listed as DZ), 127 ± 11 (6) %; on γ2S217Aβ2 (γ2S217Aβ2), “not significantly affected”; at γ2S217Aβ2 (γ2S217Aβ2, listed as DZ) it was 185 ± 23 (4) %. Moreover, the DZ potentiation at β2γ2 GABAA receptors (β2γ2) was 216 ± 30%; at β2γ2 GABAA receptors (β2γ2, listed as DZ), 216 ± 30 (15) %; at γ2F77Yβ2, “nearly lost”; on γ2F77Yβ2 (listed as DZ), 5 ± 2 (5) %; on β2T202Sγ2 (β2T202Sγ2), “not significantly affected”; at β2T202Sγ2 (β2T202Sγ2, listed as DZ), 100 ± 7 (4) %. Moreover, in test [1] (quite prominent at higher doses), the Locomotor activity result is given as “trend towards reduced locomotor activity”. Besides, in test [1], the “Diazepam-induced muscle relaxation and motor impairment” value is reported as “completely protected”. For the same molecule, the EC50 – broadly, the concentration at which the effect is half-maximal – in the test with α1β2γ2 was 92 ± 6 nM. In addition, on β2γ2 GABAA receptors (β2γ2), the “Hill coefficient of diazepam” value is given as 0.6 ± 0.1. Besides, the “Effect on DZ affinity” value with α1T206C in α1β2γ2 was “(no effect on DZ affinity)”.

Take `CCOC(=O)c1cncn1[C@H](C)c1ccccc1` [etomidate]: the Etomidate current amplitude was 13 ± 3 (11) nA on β2Y62Lγ2 (β2Y62Lγ2, 50 µM etomidate); 777 ± 113 (5) nA at γ2Y220Qβ2 (γ2Y220Qβ2, 50 µM etomidate); 141 ± 31 (5) nA on γ2S217Aβ2 (γ2S217Aβ2, 50 µM etomidate); 946 ± 8 (4) nA on β2γ2 GABAA receptors (β2γ2, 50 µM etomidate, −80 mV); 0 ± 0 (5) nA at γ2 (50 µM etomidate); 193 ± 25 (4) nA at γ2F77Yβ2 (50 µM etomidate). The Etomidate current amplitude at β2T202Aγ2 is given as 8 ± 2 (5) nA; at β2 (50 µM etomidate) it was 4 ± 1 (4) nA; at γ2Y220Sβ2, 76 ± 17 (5) nA; on β2T202Sγ2 (β2T202Sγ2, 50 µM etomidate), 380 ± 77 (5) nA; on β2Y205Sγ2, 0 ± 0 (5) nA; on β2Y205Qγ2, 6 ± 2 (5) nA. For the same molecule, the “Etomidate current relative to GABA current (fold smaller)” value is listed as “about 4 fold” at β2Y62Lγ2 (β2Y62Lγ2, 50 µM etomidate vs saturating GABA) and “about 30 fold” with α1β2Y62Lγ2 receptors. For the same molecule, on β2γ2 GABAA receptors (wild type β2γ2, 50 µM etomidate vs saturating GABA), the “Etomidate current relative to GABA current (fold larger)” value is “about 7 fold”.
